Residue numbers refer to the chain shown, from its start. pKi: −log10 of the molar value. “Also recorded” adds a separate entry of the source.
How the values were obtained:
SIRT1 = target: T1, SIRT1 (Homo sapiens, UniProt Q96EB6); experiment: Enzyme kinetic reaction test (inhibition type, Michaelis-Menten and Lineweaver-Burk plots); assay type: biochemical
T1 sequence (Q96EB6 1-747): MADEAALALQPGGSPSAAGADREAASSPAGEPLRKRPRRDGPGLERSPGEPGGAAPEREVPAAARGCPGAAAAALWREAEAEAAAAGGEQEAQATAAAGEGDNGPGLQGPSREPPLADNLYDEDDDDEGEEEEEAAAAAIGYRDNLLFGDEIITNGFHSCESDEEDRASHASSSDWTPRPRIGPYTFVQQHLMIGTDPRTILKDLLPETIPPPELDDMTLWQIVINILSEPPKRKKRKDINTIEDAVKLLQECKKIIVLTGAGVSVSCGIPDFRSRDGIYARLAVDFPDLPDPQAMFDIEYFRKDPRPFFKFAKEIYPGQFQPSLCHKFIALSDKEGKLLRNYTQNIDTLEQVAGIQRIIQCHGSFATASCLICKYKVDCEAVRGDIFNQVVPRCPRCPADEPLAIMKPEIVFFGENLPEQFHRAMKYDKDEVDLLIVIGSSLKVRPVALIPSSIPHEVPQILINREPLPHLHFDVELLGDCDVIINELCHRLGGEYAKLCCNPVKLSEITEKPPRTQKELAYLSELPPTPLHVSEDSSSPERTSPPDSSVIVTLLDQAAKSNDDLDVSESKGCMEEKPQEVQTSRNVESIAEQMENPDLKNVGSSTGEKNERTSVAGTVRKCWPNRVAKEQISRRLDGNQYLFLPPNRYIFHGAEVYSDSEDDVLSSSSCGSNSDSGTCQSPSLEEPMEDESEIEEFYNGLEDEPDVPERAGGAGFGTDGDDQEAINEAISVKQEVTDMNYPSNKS

SIRT1 I347A = target: T2, SIRT1 I347A (Homo sapiens, UniProt Q96EB6, I347A); experiment: Inhibitory constant on SIRT1 mutant I347A; assay type: biochemical
T2 construct: made in house
T2 sequence (Q96EB6 1-747 I347A): T1 sequence (Q96EB6 1-747) with I347A

SIRT1 D348A = target: T3, SIRT1 D348A (Homo sapiens, UniProt Q96EB6, D348A); experiment: Inhibitory constant on SIRT1 mutant D348A; assay type: biochemical
T3 construct: made in house
T3 sequence (Q96EB6 1-747 D348A): T1 sequence (Q96EB6 1-747) with D348A

[1] = tested on: p53 acetylation levels in SH-SY5Y human neuroblastoma cells; experiment: Effect of compounds on p53 acetylation level in cells (Western blot); assay type: cell-based; details: ATRA-induced differentiation, compound 10 μM, 2 h, Figure 5
SIRT1 wild type = target: T4, SIRT1 wild type (Homo sapiens, UniProt Q96EB6); experiment: Inhibitory constant on SIRT1 wild type; assay type: biochemical
T4 sequence (Q96EB6 1-747): T1 sequence (Q96EB6 1-747)

[2] = target: T5, mini-hSIRT1 protein (SIRT1 Cy5) (Homo sapiens, UniProt Q96EB6); experiment: Microscale thermophoresis (MST) binding experiment
T5 sequence (Q96EB6 with tags, fused parts or gaps limits assumed): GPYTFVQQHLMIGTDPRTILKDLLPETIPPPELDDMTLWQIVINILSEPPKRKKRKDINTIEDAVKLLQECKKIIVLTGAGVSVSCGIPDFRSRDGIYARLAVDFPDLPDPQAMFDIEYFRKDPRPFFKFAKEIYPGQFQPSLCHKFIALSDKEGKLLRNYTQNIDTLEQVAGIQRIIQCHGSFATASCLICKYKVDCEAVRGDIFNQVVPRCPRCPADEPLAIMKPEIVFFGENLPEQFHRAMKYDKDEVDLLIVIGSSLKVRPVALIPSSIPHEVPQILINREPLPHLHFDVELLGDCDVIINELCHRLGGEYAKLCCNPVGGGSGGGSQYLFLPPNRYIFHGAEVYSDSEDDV

[3] = fixed Abz polypeptide, with increasing S3 concentration
[4] = fixed NAD+, with increasing S3 concentration

COc1cc(C=C2C(=O)OC(c3ccccc3)OC2=O)cc(Br)c1O (stereo not drawn) [Compound S3, 5-(3-bromo-4-hydroxy-5-methoxybenzylidene) -2-phenyl-1,3-dioxane-4,6-dione]
apparent Michaelis constant Km′ for NAD+ (SIRT1; [3]): 不变 | initial velocity V0, NAD+ varied (SIRT1; [3]): 减小 | apparent Michaelis constant Km′ for Abz polypeptide (SIRT1; [4]): 减小 | initial velocity V0, substrate Abz polypeptide varied (SIRT1; [4]): 减小 | type of inhibition toward NAD+ (SIRT1; fixed acetylated peptide 30 μM, varied NAD+ 31.25-1000 μM, 0.5 μM SIRT1): 非竞争性抑制; also recorded: NAD +的非竞争性抑制剂 | binding site of compound on SIRT1 relative to substrate polypeptide and NAD+ sites (SIRT1; inferred from kinetics): 可能在底物多肽的结合位点; also recorded: 不在NAD +的结合位点 | pKi (SIRT1 I347A): 6.17 | pKi (SIRT1 D348A): 5.36 | effect on decrease of p53 acetylation level [1]: 抑制ATRA诱导的SH-SY5Y细胞分化过程中p53乙酰化水平降低 | pKi (SIRT1 wild type): 6.80 | type of inhibition toward NAD+ ([2]; MST, Figure 3): non-competitive inhibitor of NAD + | type of inhibition/binding toward Abz polypeptide ([2]; MST, Figure 3): competitive inhibitor of Abz polypeptide; also recorded: competitively binds to the binding site of the substrate polypeptide Abz | Kd of binding to SIRT1 (change) ([2]; with 500 μM Abz polypeptide): increased | binding curve with SIRT1 protein (shift), with Abz polypeptide ([2]; with 500 μM Abz polypeptide): shifted to the right | binding curve with SIRT1 protein (shift), with NAD+ ([2]; with 5 mM NAD+): did not change significantly

— WO2019242687A1, “1,3-dioxane-4,6-dione compound, and preparation method, pharmaceutical composition, and application thereof” (Shanghai Institute of Materia Medica of CAS, priority 2018, dated 2018)
